Structures are written as SMILES. Peptide text beside a SMILES is read from it.

In assay [1] the target is T1, tissue carnosinase (Rattus norvegicus, UniProt Q6Q0N1).
T1 construct: Partially purified tissue carnosinase as a solution in 0.1M phosphate buffer (pH 7.0) is prepared from the crude brain extracts; from tissue; host or cells: brain of male Hairless rats
T1 sequence (Q6Q0N1 1-475): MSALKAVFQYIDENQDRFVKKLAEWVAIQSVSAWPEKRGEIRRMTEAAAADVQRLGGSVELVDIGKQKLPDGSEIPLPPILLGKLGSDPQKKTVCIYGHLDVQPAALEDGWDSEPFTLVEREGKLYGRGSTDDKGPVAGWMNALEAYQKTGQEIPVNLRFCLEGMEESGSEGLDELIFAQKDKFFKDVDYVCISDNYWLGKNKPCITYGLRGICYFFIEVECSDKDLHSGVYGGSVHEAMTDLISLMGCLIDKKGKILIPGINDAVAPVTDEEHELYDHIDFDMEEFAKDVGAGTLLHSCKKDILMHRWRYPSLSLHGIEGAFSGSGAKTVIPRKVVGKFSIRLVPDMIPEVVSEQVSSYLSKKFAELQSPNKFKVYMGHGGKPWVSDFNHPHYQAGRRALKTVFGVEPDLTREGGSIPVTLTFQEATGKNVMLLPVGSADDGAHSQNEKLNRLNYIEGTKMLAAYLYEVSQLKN
Nature of the assay: Hydrolysis of L-carnosine and related substance with tissue carnosinase in the absence or presence of a carnosinase inhibitor. In kind it is biochemical, male Hairless rats. Particulars: pH 7.0, 37° C. As for the experimental part:
Partially purified tissue carnosinase as a solution in 0.1M phosphate buffer (pH 7.0) is prepared from the crude brain extracts of male Hairless rats by a reported procedure (Y. Courbebaisse, G. Langrand, J -F. Nicolay and M. A. Babizhayev, Proceeding of 19th IFSCC Congress, Australia, Vol. 3, 1996, p. 1-12; M. A. Babizhayev et al., Letters in Peptide Science, Vol. 5, 163, 1998). A solution of the substrate (450 μl) in 0.1M phosphate buffer (pH 7.0) is incubated with the diluted enzyme solution (50 μl) at 37° C. for 120 min. in the absence or in the presence of a carnosinase inhibitor. Portions of the reaction mixture are taken at the time points of 0, 2, 3, 4, 5, 10, 20, 40, 60 min and dansylated with dansyl chloride (5 mg of dansyl chloride/ml of acetonitrile solution) at 50° C. for 15 min. The each portion is subjected to HPLC analysis on a column C18DB using a gradient method (A=0.02N acetic acid/acetonitrile, 90/10; B=acetonitrile). The rate of the peptide hydrolysis is determined by following the decrease of the area under the curve (AUC) of the dansylated substrate.

Assay [2] concerns solid tumor cell lines. Put plainly: Growth inhibition and induction of apoptosis in solid tumor cell lines. It is filed as cell-based. Here is the method: The experimental design, details of experimental procedure and human leukemia cell lines were essentially the same as those reported by Sekine et al. (Int. J. Cancer, Vol. 94, 485, 2001). The carnosinase inhibitor bestatine was used in the range of 5-15 μg/ml of concentration and the concentration of the applied carnosine varied from 5-20 mM . […] Our study was performed with this combination to examine whether bestatin+carnosine can also induce apoptosis in solid tumor cell lines.

Assay [3] relates to skin. Nature of the assay: Cosmetic liposome composition applied on the skin of elderly volunteers. As to conditions: 10 elderly subjects, applied on the skin twice daily for 15 days. It is filed as in vivo, human.
In assay [4] the test system is cells. As to conditions: L-carnosine supplementation of tissue cultures; cited from earlier work.
Assay [5] deals with mice. Particulars: mice supplemented with L-carnosine; cited from earlier work.
Where [6] appears, read: substrate L-Carnosine 0.08 mM + inhibitor 0.5 mM.

`CC(=O)NCCC(=O)O` [N-acetyl-β-alanine]: the values for the rate of hydrolysis in assay [1] (setting [6]) and in assay [1] (substrate N-Acetyl-L-carnosine 0.08 mM + inhibitor 0.5 mM) were 3e-06 mol/min and 3.5e-07 mol/min, respectively.

`CC(=O)NCCC(=O)N[C@@H](Cc1cnc[nH]1)C(=O)O` [N-Acetyl-L-carnosine, N-acetyl-L-carnosine]: the rate of hydrolysis in assay [1] (substrate N-Acetyl-L-carnosine 0.08 mM alone (blank test)) was 1e-06 mol/min.

On to `O=C(O)[C@H](Cc1cnc[nH]1)NC(=O)[C@@H]1CCCN1` [L-Pro-L-His], for which the rate of hydrolysis in assay [1] (setting [6]) was 9e-06 mol/min.

With `NCCCC(=O)NCCc1c[nH]cn1` [γ-aminobutyryl-histamine, γ-aminobutyrylhistamine], the rate of hydrolysis in assay [1] (setting [6]) turned out to be 4.5e-06 mol/min.

Consider `CC(C)C[C@H](NC(=O)[C@@H](O)[C@H](N)Cc1ccccc1)C(=O)O` [bestatine, bestatin, reference compound], for which, in assay [1] (substrate L-Carnosine 0.08 mM + inhibitor 0.5 nM), the rate of hydrolysis was 2e-06 mol/min. In addition, the “growth inhibition and induction of apoptosis” value in assay [2] (bestatine 5-15 μg/ml, carnosine 5-20 mM) is “neither direct growth inhibition nor induction of apoptosis”.

Take `NCCC(=O)N[C@@H](Cc1c[nH]cn1)C(=O)O` [L-Carnosine, β-alanyl-L-histidine]: the rate of hydrolysis in assay [1] (L-Carnosine 0.08 mM + L-carnosine 0.3 mM (blank test)) worked out at 7.8e-05 mol/min; in assay [1] (substrate L-Carnosine 0.08 mM alone (blank test)), 3.4e-05 mol/min; in assay [1] (substrate L-Carnosine 0.3 mM alone (blank test)), 7.8e-05 mol/min. The skin pigmentation entry in assay [3] was “only a little whitening activity”. For the same compound, in assay [4], the “increase in cellular life span” value is on record as 67%. In addition, the “average life span longer than non-treated mice” value in assay [5] is 20%.

On to `NCC(=O)N[C@@H](Cc1cnc[nH]1)C(=O)O` [Gly-L-His] (H-Gly-His-OH), for which the rate of hydrolysis in assay [1] (setting [6]) was determined as 6e-06 mol/min.

`COC(=O)[C@H](CC(C)C)NC(=O)[C@@H](O)[C@H](N)Cc1ccccc1` [bestatin methyl ester]: the cell growth result in assay [2] (used with L-carnosine, compared with L-carnosine only) is “inhibited cell growth more clearly than the case where only L-carnosine is used”.

Regarding `NCCC(=O)O` [β-alanine], the rate of hydrolysis in assay [1] (setting [6]) was found to be 5e-06 mol/min; in assay [1] (substrate L-Carnosine 0.3 mM + inhibitor 0.5 mM), 5.4e-05 mol/min.

These data come from patent US20060116328A1, “Combined use of carnosinase inhibitor with l-carnosines and composition” (priority 2003, published 2006).
